In US8927023B2, “Biocompatible, non-biodegradable, non-toxic polymer useful for nanoparticle pharmaceutical compositions” (Fresenius Kabi Oncology Limited, priority 2005, dated 2015):
Blank lines part the entries; values can stand above or below the compound they belong to.

Tests used:
[1] = Clarity of the solution of the nanoparticulate composition; assay type: physicochemical
Description: (§1) This could be exemplified with respect to pharmaceutical compositions of two poorly water-soluble anticancer drugs or compounds, viz.

[2] = Average particle size of the nanoparticles in the pharmaceutical composition; assay type: physicochemical; conditions: 1 ml ethanol solution into ≈35 ml
Description: as §1

[3] = Stability: hours the drug remains in solution without precipitation
Description: By reference to the term “stability”, it is to be construed to mean the period, counted in hours, wherein the poorly water-soluble drug or compound remains in solution in the pharmaceutical composition comprising the same, without any precipitation of the drug or compound from therein.

[4] = 1 ml ethanol solution into ≈35 ml, needle 0.305 mm, addition 3 Secs
[5] = 1 ml ethanol solution into ≈35 ml, needle 1.270 mm, addition 2 Secs
[6] = 1 ml ethanol solution into ≈35 ml, needle 1.270 mm, addition 6 Secs
[7] = 15 ml ethanol solution into ≈500 ml, needle 0.330 mm, addition 18 Secs
[8] = 15 ml ethanol solution into ≈500 ml, needle 0.711 mm, addition 10 Secs

SMILES: C=C(C)[C@@H]1CC[C@]2(C(=O)O)CC[C@]3(C)C(CCC4[C@@]5(C)Cc6c([nH]c7ccc(Cl)cc67)C(C)(C)C5CC[C@]43C)C12 (stereo partly drawn) [DRF-4012]
Clarity Of The Solution [1, 4]: Clear
Clarity Of The Solution [1, 5]: Opalescent
Clarity Of The Solution [1, 6]: Milky
Average Particle Size (nm) ([2]; needle 0.305 mm, addition 6 Secs): 200 nm
Average Particle Size (nm) ([2]; needle 0.465 mm, addition 2 Secs): 90 nm
Average Particle Size (nm) ([2]; needle 0.467 mm, addition 6 Secs): 200 nm
Average Particle Size (nm) ([2]; needle 0.711 mm, addition 2 Secs): 100 nm
Average Particle Size (nm) ([2]; needle 0.711 mm, addition 6 Secs): 240 nm
Average Particle Size (nm) ([2]; needle 1.270 mm, addition 2 Secs): 130 nm
Average Particle Size (nm) ([2]; needle 1.270 mm, addition 6 Secs): 8100 nm
Average Particle Size (nm) ([2]; nanoparticles with the polymer, needle 0.305 mm, addition 3 Secs): 70 nm

Stability [3, 4]: >24 h
Stability ([3]; 1 ml ethanol solution into ≈35 ml, needle 0.305 mm, addition 6 Secs): <4 h
Stability ([3]; 1 ml ethanol solution into ≈35 ml, needle 0.467 mm, addition 2 Secs): 20 h
Stability ([3]; 1 ml ethanol solution into ≈35 ml, needle 0.467 mm, addition 6 Secs): <2 h
Stability ([3]; 1 ml ethanol solution into ≈35 ml, needle 0.711 mm, addition 2 Secs): <10 h
Stability ([3]; 1 ml ethanol solution into ≈35 ml, needle 0.711 mm, addition 6 Secs): <2 h
Stability [3, 5]: <4 h
Stability [3, 6]: <0.5 h
Stability [3, 7]: 20 h
Stability [3, 8]: >24 h
Stability ([3]; 15 ml ethanol solution into ≈500 ml, needle 0.711 mm, addition 15 Secs): <15 h
Clarity Of The Solution [1, 4]: Clear
Clarity Of The Solution [1, 5]: Opalescent
Clarity Of The Solution [1, 6]: Milky
Clarity Of The Solution [1, 7]: Clear
Clarity Of The Solution [1, 8]: Clear
SMILES: CC(=O)O[C@H]1C(=O)[C@@]2(C)[C@H]([C@H](OC(=O)c3ccccc3)[C@]3(O)C[C@H](OC(=O)[C@H](O)[C@@H](NC(=O)c4ccccc4)c4ccccc4)C(C)=C1C3(C)C)[C@]1(OC(C)=O)CO[C@@H]1C[C@@H]2O [Paclitaxel]
